Source: PMC10683025, “Discovery of a Hydroxylamine-Based Brain-Penetrant EGFR Inhibitor for Metastatic Non-Small-Cell Lung Cancer” (Journal of Medicinal Chemistry, 2023)
Read-outs that look alike come from different tables or passages of the source.

Key:
EGFR del E746_A750 = molecular target: T1, EGFR del E746_A750 (Homo sapiens, UniProt P00533, DEL746-750); test: KINOMEScan KdELECT Kd determination; format: binding
T1 construct: purchased Eurofins DiscoverX (contract assay)
Method: In vitro kinase activity (inhibitor binding constants (Kd) and biochemical inhibition (IC50’s)) were assessed by Eurofins DiscoverX (Kd determinations) and Eurofins Cerep (biochemical IC50 determinations).

[1] = system: NCI-H3255 (EGFR mutation = L858R); test: CellTiter-Glo cell viability assay; format: cell-based, human; conditions: NCI-H3255; for IC50: Homo sapiens, 72 h, unadjusted for FBS
Method: The NCI-H3255 cell line was obtained from CoBioer. […] NCI-H3255 cells were cultured in BEGM (Lonza) with 10% FBS. […] All cells were cultured in a humidified incubator with 5% CO2 at 37 °C.

[2] = system: Ba/F3 EGFR-L858R/C797S cells; test: CellTiter-Glo cell viability assay; format: cell-based; conditions: Mus musculus, BaF3; 72 h, unadjusted for FBS
Method: (§1) The A431, HCC827, SK-BR-3, ZR-75–30, AU565, and Caco-2 cell lines were obtained from ATCC. The NCI-H1975 cell line was obtained from SIBS. The NCI-H3255 cell line was obtained from CoBioer. Engineered Ba/F3 cell lines were obtained from Crown Bioscience. MCKII-MDR1 cells were obtained from The Netherlands Cancer Institute. HEK293 cells were obtained from Invitrogen. A431 cells were cultured in DMEM (Life Technologies) with 10% FBS. HCC827, NCI-H1975, and AU565 cells were cultured in RPMI1640 (Invitrogen) with 10% FBS. NCI-H3255 cells were cultured in BEGM (Lonza) with 10% FBS. Ba/F3 EGFR-del E746_A750/C797S and Ba/F3 EGFR-L858R/C797S cells were cultured in RPMI (Invitrogen) with 10% FBS. SK-BR-3 cells were cultured in McCoy’s 5a (Invitrogen) with 10% FBS. ZR-75-30 cells were cultured in RPMI1640 (Invitrogen) with 20% FBS. Caco-2 and MCKII-MDR1 culture information is given in the Permeability Studies section. HEK293 cells were cultured in DMEM (Gibco) with 10% FBS, 0.1 mM NEAA, 25 mM HEPES, 100 U/mL penicillin-streptomycin, μg/mL blasticidin, and 400 μg/mL Geneticin. All cells were cultured in a humidified incubator with 5% CO2 at 37 °C.
(§2) Viability assays using A431, HCC827, NCI-H1975, NCI-H3255, Ba/F3 EGFR-del E746_A750/C797S, Ba/F3 EGFR-L858R/C797S, AU565, SK-BR-3, and ZR-75-30 cells were performed at Crown BioScience. Cells were plated into 96-well plates at 1500–7000 cells per well and dosed in triplicate (n = 3) in a nine-point, 4-fold dilution series with compounds (0.15 nM to 10 μM) in DMSO and incubated for 72 h. After 72 h, cell viability was assayed by CellTiter-Glo Luminescent Viability Assay (Promega). Dose–response curves were generated and used to calculate the IC50 values which were calculated on GraphPad Prism from the nonlinear regression equation fitted with a sigmoidal dose response and are presented as mean ± SEM.

[3] = system: Ba/F3 EGFR-del E746_A750/C797S cells; test: CellTiter-Glo cell viability assay; format: cell-based; conditions: Mus musculus, BaF3; 72 h, unadjusted for FBS
Method: as §1, §2

[4] = Metabolic stability in liver microsomes; format: in vitro ADME, human; conditions: for Remaining Percentage: human LM; for half-life at 1 h, 1 µM / microsomal CLint at 1 h, 1 µM: human, liver microsomes; for half-life at 1 h, 1 µM: read-out: LM t1/2; for microsomal CLint at 1 h, 1 µM: read-out: LMClint
Method: (§4) Microsome stability was assessed in duplicate (n = 2) in the presence and absence of nicotinamide adenine dinucleotide phosphate (NADPH) with liver microsomes (0.5 mg/mL) from human (BD Gentest) and Sprague-Dawley rats (BD Gentest). Compounds were incubated in liver microsomes at 1 μM and samples (30 μL) were taken at 0.5, 15, 30, 45, and 60 min time points for analysis by LC-MS/MS. Hepatocyte stability was assessed in duplicate (n = 2) at a working cell density of 0.5 × 10^6 cells/mL with hepatocytes from human (BiolVT), Sprague-Dawley rat (BiolVT), cynomolgus monkey (RILD) or beagle dog (BiolVT). […] The in vitro half-life and intrinsic clearances were determined as previously described.[76]
(§5) In vitro half-life (in vitro t1/2) was determined from the slope value in [drawing 1] where k was determined by linear regression of the natural logarithm of the remaining percentage of the parent drug vs the incubation time curve.

[5] = Metabolic stability in liver microsomes; format: in vitro ADME, Sprague-Dawley rat; conditions: for half-life at 1 h, 1 µM / microsomal CLint at 1 h, 1 µM: Sprague-Dawley, rat, liver microsomes; for half-life at 1 h, 1 µM: read-out: LM t1/2; for microsomal CLint at 1 h, 1 µM: read-out: LMClint; for Remaining Percentage: rat LM
Method: as §4, §5

[6] = Metabolic stability in hepatocytes; format: in vitro ADME, human; conditions: for Remaining Percentages: human hepatocytes; for hepatocyte CLint at 2 h, 1 µM / half-life at 2 h, 1 µM: human, hepatocytes; for half-life at 2 h, 1 µM: read-out: HEP t1/2
Method: as §4, §5

Plasma stability = format: in vitro ADME, Sprague-Dawley rat; conditions: for Remaining Percentages / t1/2: rat plasma; for t1/2: ∞ = no degradation
How it was run: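 Compound at 5 μM incubated in human and Sprague-Dawley rat plasma, duplicates; samples at 0, 15, 30, 60 and 120 min analysed by LC-MS/MS. Percent remaining at each time from compound/control peak area ratio relative to the 0 min ratio.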

Caco-2 permeability = format: in vitro ADME; conditions: human; for recovery at 2 h, 5 μM: Caco-2, Caco-2
Method: A 96-well HTS Transwell plate (Corning) was used for Caco-2 and MDCKII-MDR1 cell seeding. […] Plates were incubated at 37 °C for 2 h, and samples (50 μL) were taken at the beginning and end of the incubation in both the donor and acceptor wells with the assay run in duplicate (n = 2). Samples were analyzed by LC-MS/MS.
The efflux ratio was determined by using the following equation: [drawing 4] where Papp (B–A) indicates the apparent permeability in the basolateral to apical direction and Papp (A–B) indicates the apparent permeability in the apical to basolateral direction.

MDCKII-MDR1 permeability = format: in vitro ADME, canine; conditions: dog, MDCK-MDR1, MDCKII-MDR1
MDR1 = test: MDCKII-MDR1 permeability; format: in vitro ADME, canine; conditions: dog, MDCK-MDR1
[7] = Plasma protein binding by equilibrium dialysis; format: in vitro ADME, mouse
Method: (§3) Plasma protein binding and brain tissue binding were determined by Pharmaron, Inc. using the equilibrium dialysis method. […] Following incubation, the samples were analyzed by LC-MS/MS and the concentrations of the compounds were determined in the buffer and plasma solution chambers.

[8] = Brain tissue binding by equilibrium dialysis; format: in vitro ADME; conditions: rat; for recovery at 6 h, 5 μM: Sprague-Dawley (SD); for fraction unbound at 6 h, 5 μM / remaining at 6 h, 5 μM: Sprague-Dawley
Method: as §3

WNK4 = molecular target: T2, WNK4 (Homo sapiens, UniProt Q96J92); test: KINOMEScan; format: binding; conditions: WNK4, 1 µM; read-out: Percent Control
T2 construct: purchased Eurofins DiscoverX (KINOMEScan service)
T2 sequence (Q96J92 whole entry): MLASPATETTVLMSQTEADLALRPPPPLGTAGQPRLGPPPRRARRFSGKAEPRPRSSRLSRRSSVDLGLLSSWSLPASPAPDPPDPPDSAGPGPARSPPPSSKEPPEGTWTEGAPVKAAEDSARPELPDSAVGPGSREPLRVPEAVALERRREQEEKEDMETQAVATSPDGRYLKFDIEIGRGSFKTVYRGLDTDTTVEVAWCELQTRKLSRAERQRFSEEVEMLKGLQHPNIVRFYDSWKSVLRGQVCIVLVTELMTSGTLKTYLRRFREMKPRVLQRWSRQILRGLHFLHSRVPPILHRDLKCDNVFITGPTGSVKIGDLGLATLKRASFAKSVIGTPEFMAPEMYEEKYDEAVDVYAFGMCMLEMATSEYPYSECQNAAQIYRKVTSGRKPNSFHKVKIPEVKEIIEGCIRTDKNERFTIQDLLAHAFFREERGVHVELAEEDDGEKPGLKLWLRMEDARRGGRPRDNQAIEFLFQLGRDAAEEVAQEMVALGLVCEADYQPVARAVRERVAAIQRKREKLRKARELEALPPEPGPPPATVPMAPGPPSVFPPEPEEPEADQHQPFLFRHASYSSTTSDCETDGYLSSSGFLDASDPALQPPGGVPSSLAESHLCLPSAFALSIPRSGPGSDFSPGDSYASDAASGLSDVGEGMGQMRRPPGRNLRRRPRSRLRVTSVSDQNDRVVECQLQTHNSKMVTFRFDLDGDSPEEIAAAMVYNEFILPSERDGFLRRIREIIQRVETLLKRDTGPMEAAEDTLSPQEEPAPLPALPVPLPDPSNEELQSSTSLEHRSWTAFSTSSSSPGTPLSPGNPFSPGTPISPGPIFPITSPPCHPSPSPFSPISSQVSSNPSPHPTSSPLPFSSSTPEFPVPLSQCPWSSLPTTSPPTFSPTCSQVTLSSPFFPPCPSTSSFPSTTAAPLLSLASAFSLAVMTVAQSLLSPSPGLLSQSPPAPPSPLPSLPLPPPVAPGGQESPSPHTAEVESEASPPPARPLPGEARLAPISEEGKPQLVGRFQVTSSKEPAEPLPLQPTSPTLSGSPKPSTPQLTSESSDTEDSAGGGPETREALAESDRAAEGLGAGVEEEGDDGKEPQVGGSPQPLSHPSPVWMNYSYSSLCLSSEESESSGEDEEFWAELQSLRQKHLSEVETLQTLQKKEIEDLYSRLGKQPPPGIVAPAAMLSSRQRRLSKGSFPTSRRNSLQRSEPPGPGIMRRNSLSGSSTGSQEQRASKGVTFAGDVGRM
From the text: Percent control was mapped onto the kinome tree using TREEspot.

[9] = CD-1, mouse, mouse plasma, read-out: %Bound (converted)
[10] = CD-1, plasma, mouse, 5 μM, read-out: fu,plasma% / %Unbound
[11] = brain homogenate, read-out: fu,brain% / %Unboundbrain
[12] = rat brain homogenate, read-out: %Boundbrain (converted)

T1 sequence (P00533 with tags, fused parts or gaps DEL746-750): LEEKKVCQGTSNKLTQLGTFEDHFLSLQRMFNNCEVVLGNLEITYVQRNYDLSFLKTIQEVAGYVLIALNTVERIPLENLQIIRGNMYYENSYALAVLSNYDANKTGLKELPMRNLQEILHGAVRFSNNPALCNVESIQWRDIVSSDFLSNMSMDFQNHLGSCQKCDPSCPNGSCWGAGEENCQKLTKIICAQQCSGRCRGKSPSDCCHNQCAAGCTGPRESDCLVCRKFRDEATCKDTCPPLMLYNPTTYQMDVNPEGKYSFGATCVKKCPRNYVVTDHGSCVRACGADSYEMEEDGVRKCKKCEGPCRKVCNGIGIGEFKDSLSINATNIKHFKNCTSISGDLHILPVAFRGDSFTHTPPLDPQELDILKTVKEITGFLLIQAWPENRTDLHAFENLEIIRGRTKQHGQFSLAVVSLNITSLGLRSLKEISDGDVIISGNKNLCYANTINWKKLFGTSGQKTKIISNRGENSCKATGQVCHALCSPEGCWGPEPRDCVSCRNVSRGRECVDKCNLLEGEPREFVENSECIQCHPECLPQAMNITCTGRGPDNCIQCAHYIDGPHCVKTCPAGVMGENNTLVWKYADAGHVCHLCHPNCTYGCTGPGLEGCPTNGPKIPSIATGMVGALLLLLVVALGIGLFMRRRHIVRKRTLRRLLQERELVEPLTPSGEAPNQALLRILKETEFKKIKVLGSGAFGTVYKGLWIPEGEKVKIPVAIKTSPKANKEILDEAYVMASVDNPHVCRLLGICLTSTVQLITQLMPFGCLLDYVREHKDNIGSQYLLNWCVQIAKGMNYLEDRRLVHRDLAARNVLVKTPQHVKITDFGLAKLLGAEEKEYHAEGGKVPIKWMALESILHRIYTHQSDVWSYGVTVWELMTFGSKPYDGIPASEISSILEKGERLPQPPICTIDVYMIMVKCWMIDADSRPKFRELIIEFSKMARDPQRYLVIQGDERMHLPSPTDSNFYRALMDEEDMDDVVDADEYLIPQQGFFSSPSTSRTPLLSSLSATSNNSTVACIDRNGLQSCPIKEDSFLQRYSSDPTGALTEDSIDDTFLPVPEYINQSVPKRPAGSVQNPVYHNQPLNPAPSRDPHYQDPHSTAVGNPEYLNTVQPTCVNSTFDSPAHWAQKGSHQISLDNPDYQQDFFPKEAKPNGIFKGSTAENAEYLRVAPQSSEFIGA

Compound: COc1cc2ncnc(Nc3cccc(Cl)c3F)c2cc1OCCON1CCN(C)CC1 [Compound 9, N-(3-Chloro-2-fluorophenyl)-7-methoxy-6-(2-((4-methylpiperazin-1-yl)oxy)ethoxy)quinazolin-4-amine]
- Kd (EGFR del E746_A750): < 0.2 nM
- IC50 [1]: 7.2 nM
- improvement of IC50 over 6 [1]: roughly 12 fold
- IC50 [2]: 4.6 nM
- IC50 [3]: 2.5 nM
- Remaining Percentage ([4]; +Cofactors, 15 min): 69.65%
- Remaining Percentage ([4]; +Cofactors, 30 min): 46.26%
- Remaining Percentage ([4]; +Cofactors, 45 min): 31.49%
- Remaining Percentage ([4]; +Cofactors, 60 min): 26.65%
- Remaining Percentage ([4]; -Cofactors, 60 min): 109.86%
- half-life at 1 h, 1 µM [4]: 30 min
- microsomal CLint at 1 h, 1 µM [4]: 46 µL/min/mg
- half-life at 1 h, 1 µM [5]: 9.5 min
- microsomal CLint at 1 h, 1 µM [5]: 146 µL/min/mg
- Remaining Percentage ([5]; +Cofactors, 15 min): 34.07%
- Remaining Percentage ([5]; +Cofactors, 30 min): 11.66%
- Remaining Percentage ([5]; +Cofactors, 45 min): 6.01%
- Remaining Percentage ([5]; +Cofactors, 60 min): 2.50%
- Remaining Percentage ([5]; -Cofactors, 60 min): 113.38%
- Remaining Percentages ([6]; 15 min): 98.94%
- Remaining Percentages ([6]; 30 min): 89.67%
- Remaining Percentages ([6]; 60 min): 75.36%
- Remaining Percentages ([6]; 90 min): 58.28%
- Remaining Percentages ([6]; 120 min): 52.37%
- hepatocyte CLint at 2 h, 1 µM [6]: 12 µL/min/1e6 cells
- half-life at 2 h, 1 µM [6]: 117 min
- remaining at 5 μM (Plasma stability; Sprague-Dawley, rat, plasma): > 90%
- Remaining Percentages (Plasma stability; 15 min): 96.53%
- Remaining Percentages (Plasma stability; 30 min): 95.56%
- Remaining Percentages (Plasma stability; 60 min): 99.37%
- Remaining Percentages (Plasma stability; 120 min): 96.60%
- t1/2 (Plasma stability): ∞
- efflux ratio at 2 h, 5 µM (Caco-2 permeability; Caco-2): 1.3
- efflux ratio at 2 h, 5 μM (Caco-2 permeability; Caco-2): 1.32
- recovery at 2 h, 5 μM (Caco-2 permeability; read-out: Recovery% (AP-BL)): 53.9%
- recovery at 2 h, 5 μM (Caco-2 permeability; read-out: Recovery% (BL-AP)): 73.5%
- Papp A→B at 2 h, 5 µM (Caco-2 permeability; Caco-2): 6.5 ×10⁻⁶ cm/s
- Papp A→B at 2 h, 5 μM (Caco-2 permeability; Caco-2): 6.52 ×10⁻⁶ cm/s
- Papp B→A at 2 h, 5 µM (Caco-2 permeability; Caco-2): 8.6 ×10⁻⁶ cm/s
- Papp B→A at 2 h, 5 μM (Caco-2 permeability; Caco-2): 8.61 ×10⁻⁶ cm/s
- recovery at 2 h, 1 μM (MDCKII-MDR1 permeability; read-out: Recovery% (AP-BL)): 68.6%
- recovery at 2 h, 1 μM (MDCKII-MDR1 permeability; read-out: Recovery% (BL-AP)): 90%
- efflux ratio at 2 h, 1 µM (MDR1): 0.9
- efflux ratio at 2 h, 1 μM (MDR1): 0.92
- Papp A→B at 2 h, 1 µM (MDR1): 9.8 ×10⁻⁶ cm/s
- Papp A→B at 2 h, 1 μM (MDR1): 9.82 ×10⁻⁶ cm/s
- Papp B→A at 2 h, 1 µM (MDR1): 9.1 ×10⁻⁶ cm/s
- Papp B→A at 2 h, 1 μM (MDR1): 9.06 ×10⁻⁶ cm/s
- recovery at 6 h, 5 μM ([7]; CD-1, mouse, mouse plasma): 95.4%
- remaining at 6 h, 5 μM ([7]; CD-1, mouse, mouse plasma): 92.9%
- fraction unbound at 6 h, 5 μM [7, 9]: 0.0702
- fraction unbound at 6 h, 5 µM [7, 10]: 0.07
- fraction unbound at 6 h, 5 μM [7, 10]: 0.0702
- recovery at 6 h, 5 μM ([8]; rat brain homogenate): 102%
- fraction unbound at 6 h, 5 μM [8, 11]: 0.0447
- remaining at 6 h, 5 μM ([8]; rat brain homogenate): 94.7%
- fraction unbound at 6 h, 5 μM [8, 12]: 0.0447
- fraction unbound at 6 h, 5 µM [8, 11]: 0.045
- remaining binding at 1 µM (WNK4): 95%

Compound: COc1cc2ncnc(Nc3cccc(Cl)c3F)c2cc1OCCON1CCOCC1 [Compound 7, N-(3-Chloro-2-fluorophenyl)-7-methoxy-6-(2-(morpholinooxy)ethoxy)quinazolin-4-amine]
- Kd (EGFR del E746_A750): < 0.2 nM
- IC50 [1]: 17 nM
- IC50 [2]: 5 nM
- IC50 [3]: 2.5 nM
- Remaining Percentage ([4]; +Cofactors, 15 min): 43.79%
- Remaining Percentage ([4]; +Cofactors, 30 min): 21.93%
- Remaining Percentage ([4]; +Cofactors, 45 min): 10.84%
- Remaining Percentage ([4]; +Cofactors, 60 min): 7.20%
- Remaining Percentage ([4]; -Cofactors, 60 min): 87.34%
- half-life at 1 h, 1 µM [4]: 14 min
- microsomal CLint at 1 h, 1 µM [4]: 99 µL/min/mg
- half-life at 1 h, 1 µM [5]: 10 min
- microsomal CLint at 1 h, 1 µM [5]: 138 µL/min/mg
- Remaining Percentage ([5]; +Cofactors, 15 min): 28.79%
- Remaining Percentage ([5]; +Cofactors, 30 min): 12.97%
- Remaining Percentage ([5]; +Cofactors, 45 min): 8.49%
- Remaining Percentage ([5]; +Cofactors, 60 min): 5.84%
- Remaining Percentage ([5]; -Cofactors, 60 min): 118.60%
- Remaining Percentages ([6]; 15 min): 96.13%
- Remaining Percentages ([6]; 30 min): 87.34%
- Remaining Percentages ([6]; 60 min): 76.27%
- Remaining Percentages ([6]; 90 min): 61.58%
- Remaining Percentages ([6]; 120 min): 45.68%
- hepatocyte CLint at 2 h, 1 µM [6]: 13 µL/min/1e6 cells
- half-life at 2 h, 1 µM [6]: 108 min
- Remaining Percentages (Plasma stability; 15 min): 91.34%
- Remaining Percentages (Plasma stability; 30 min): 93.84%
- Remaining Percentages (Plasma stability; 60 min): 93.29%
- Remaining Percentages (Plasma stability; 120 min): 95.67%
- t1/2 (Plasma stability): ∞
- efflux ratio at 2 h, 5 µM (Caco-2 permeability; Caco-2): 1
- recovery at 2 h, 5 μM (Caco-2 permeability; read-out: Recovery% (AP-BL)): 72.9%
- recovery at 2 h, 5 μM (Caco-2 permeability; read-out: Recovery% (BL-AP)): 72.2%
- Papp A→B at 2 h, 5 µM (Caco-2 permeability; Caco-2): 10.9 ×10⁻⁶ cm/s
- Papp A→B at 2 h, 5 μM (Caco-2 permeability; Caco-2): 10.9 ×10⁻⁶ cm/s
- Papp B→A at 2 h, 5 µM (Caco-2 permeability; Caco-2): 10.8 ×10⁻⁶ cm/s
- Papp B→A at 2 h, 5 μM (Caco-2 permeability; Caco-2): 10.8 ×10⁻⁶ cm/s
- recovery at 2 h, 1 μM (MDCKII-MDR1 permeability; read-out: Recovery% (AP-BL)): 73.5%
- recovery at 2 h, 1 μM (MDCKII-MDR1 permeability; read-out: Recovery% (BL-AP)): 76.4%
- efflux ratio at 2 h, 1 µM (MDR1): 1.1
- efflux ratio at 2 h, 1 μM (MDR1): 1.06
- Papp A→B at 2 h, 1 µM (MDR1): 12.6 ×10⁻⁶ cm/s
- Papp A→B at 2 h, 1 μM (MDR1): 12.6 ×10⁻⁶ cm/s
- Papp B→A at 2 h, 1 µM (MDR1): 13.3 ×10⁻⁶ cm/s
- Papp B→A at 2 h, 1 μM (MDR1): 13.3 ×10⁻⁶ cm/s
- recovery at 6 h, 5 μM ([7]; CD-1, mouse, mouse plasma): 98.4%
- remaining at 6 h, 5 μM ([7]; CD-1, mouse, mouse plasma): 102%
- fraction unbound at 6 h, 5 μM [7, 9]: 0.0665
- fraction unbound at 6 h, 5 μM [7, 10]: 0.0665
- recovery at 6 h, 5 μM ([8]; rat brain homogenate): 94.7%
- fraction unbound at 6 h, 5 μM [8, 11]: 0.0478
- remaining at 6 h, 5 μM ([8]; rat brain homogenate): 98.3%
- fraction unbound at 6 h, 5 μM [8, 12]: 0.0478
